Test results: the supplement of paper PMC10307832

How the values were obtained:
Experiment in all cases: relative viability (nuclei count vs DMSO), 5 days (fraction); higher = more cells survive
[1] = compound: CN(C)CC1=CC(=CC=C1)N=C(C2=CC=CC=C2)C3=C(NC4=C3C=CC(=C4)C(=O)N(C)C)O
Method in brief: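 Cells of lung cancer lines were placed in 1536-well plates and kept overnight at 37 °C. Pinning then delivered five library-drug doses (not always all listed), spaced by √10, onto plates anchored with vehicle, and the cells were left 5 days without changing medium. One step fixed, permeabilised and stained them with Hoechst, and MetaXpress counted nuclei in 4× images. Viability, as a median over plates, is treated-well nuclei divided by vehicle-well nuclei, with acceptance only at control CV below 25% and at least one doubling.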

[2] = compound: CN(C)CC1=CC(=CC=C1)N=C(C2=CC=CC=C2)C3=C(NC4=C3C=CC(=C4)C(=O)N(C)C)O + CC(=O)Nc1cccc(-n2c(=O)n(C3CC3)c(=O)c3c(Nc4ccc(I)cc4F)n(C)c(=O)c(C)c32)c1 [Trametinib] (partner 0.02 µM)
Method in brief: (§1)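 Values are medians from duplicate plates. Each reflects relative viability, defined as the nuclei count of treated wells over that of vehicle wells. Lung cancer cell lines in 1536-well plates were pin-tool dosed one day after seeding with one drug alone or with a fixed anchor-drug dose plus five library-drug doses (not always all listed) in √10 steps, then fixed, stained and imaged at 4× after 5 days.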

[3] = compound: CN(C)CC1=CC(=CC=C1)N=C(C2=CC=CC=C2)C3=C(NC4=C3C=CC(=C4)C(=O)N(C)C)O + CC(=O)c1c(C)c2cnc(Nc3ccc(N4CCNCC4)cn3)nc2n(C2CCCC2)c1=O [Palbociclib] (partner 0.5 µM)
Method in brief: as §1

[4] = compound: CN(C)CC1=CC(=CC=C1)N=C(C2=CC=CC=C2)C3=C(NC4=C3C=CC(=C4)C(=O)N(C)C)O + CCNC(=O)c1noc(-c2cc(C(C)C)c(O)cc2O)c1-c1ccc(CN2CCOCC2)cc1 [Luminespib] (partner 0.01 µM)
Method in brief: as §1

[5] = compound: CN(C)CC1=CC(=CC=C1)N=C(C2=CC=CC=C2)C3=C(NC4=C3C=CC(=C4)C(=O)N(C)C)O + COc1cc2c(Oc3ccc(NC(=O)C4(C(=O)Nc5ccc(F)cc5)CC4)cc3F)ccnc2cc1OCCCN1CCOCC1 [Foretinib] (partner 0.25 µM)
Method in brief: as §1

[6] = compound: CN(C)CC1=CC(=CC=C1)N=C(C2=CC=CC=C2)C3=C(NC4=C3C=CC(=C4)C(=O)N(C)C)O + COc1cccc2cc(-c3nc([C@H]4CC[C@H](C(=O)O)CC4)n4ncnc(N)c34)[nH]c12 [OSI-027] (partner 0.5 µM)
Method in brief: as §1

[7] = compound: CN(C)CC1=CC(=CC=C1)N=C(C2=CC=CC=C2)C3=C(NC4=C3C=CC(=C4)C(=O)N(C)C)O + Cc1cc(Nc2cc(N3CCN(C)CC3)nc(Sc3ccc(NC(=O)C4CC4)cc3)n2)n[nH]1 [Tozasertib] (partner 0.1 µM)
Method in brief: as §1

[8] = compound: CN(C)CC1=CC(=CC=C1)N=C(C2=CC=CC=C2)C3=C(NC4=C3C=CC(=C4)C(=O)N(C)C)O + Cc1nc(Nc2ncc(C(=O)Nc3c(C)cccc3Cl)s2)cc(N2CCN(CCO)CC2)n1 [Dasatinib] (partner 0.075 µM)
Method in brief: as §1

[9] = compound: CN(C)CC1=CC(=CC=C1)N=C(C2=CC=CC=C2)C3=C(NC4=C3C=CC(=C4)C(=O)N(C)C)O + N=C(N)NC(=N)NCCc1ccccc1 [Phenformin] (partner 250 µM)
Method in brief: as §1

[10] = compound: CN(C)CC1=CC(=CC=C1)N=C(C2=CC=CC=C2)C3=C(NC4=C3C=CC(=C4)C(=O)N(C)C)O + NC(=O)Nc1cc(-c2cccc(F)c2)sc1C(=O)N[C@H]1CCCNC1 [AZD7762] (partner 0.2 µM)
Method in brief: as §1

[11] = compound: CN(C)CC1=CC(=CC=C1)N=C(C2=CC=CC=C2)C3=C(NC4=C3C=CC(=C4)C(=O)N(C)C)O + Nc1nc2[nH]cc(CCc3ccc(C(=O)N[C@@H](CCC(=O)O)C(=O)O)cc3)c2c(=O)[nH]1 [Pemetrexed] (partner 0.2 µM)
Method in brief: as §1

[12] = compound: CN(C)CC1=CC(=CC=C1)N=C(C2=CC=CC=C2)C3=C(NC4=C3C=CC(=C4)C(=O)N(C)C)O + Nc1ncn([C@H]2C[C@H](O)[C@@H](CO)O2)c(=O)n1 [Decitabine] (partner 2 µM)
Method in brief: as §1

[13] = compound: CN(C)CC1=CC(=CC=C1)N=C(C2=CC=CC=C2)C3=C(NC4=C3C=CC(=C4)C(=O)N(C)C)O + O=C(CCCCCCC(=O)Nc1ccccc1)NO [Vorinostat] (partner 1 µM)
Method in brief: as §1

[14] = compound: CN(C)CC1=CC(=CC=C1)N=C(C2=CC=CC=C2)C3=C(NC4=C3C=CC(=C4)C(=O)N(C)C)O + O=C(c1cc(Cc2n[nH]c(=O)c3ccccc23)ccc1F)N1CCN(C(=O)C2CC2)CC1 [Olaparib] (partner 8 µM)
Method in brief: as §1

SW 900 was tested. Which relative viability ([1]; 0.08 µM) did it give?
Its relative viability is 0.997.

What about the relative viability ([1]; 0.253 µM) of the same cell line?
The relative viability was 0.886.

What about the relative viability ([1]; 0.8 µM) of the same cell line?
Its relative viability is 0.983.

What about the relative viability ([1]; 2.53 µM) of the same cell line?
The relative viability was 0.934.

What about the relative viability ([1]; 8 µM) of the same cell line?
The relative viability was 0.937.

And the relative viability ([2]; first compound 0.08 µM)?
Its relative viability is 0.819.

And the relative viability ([2]; first compound 0.253 µM)?
The relative viability was 0.738.

What about the relative viability ([2]; first compound 0.8 µM) of the same cell line?
The relative viability was 0.702.

What about the relative viability ([2]; first compound 2.53 µM) of the same cell line?
The relative viability was 1.04.

What about the relative viability ([2]; first compound 8 µM) of the same cell line?
The relative viability was 1.24.

And the relative viability ([3]; first compound 0.08 µM)?
Its relative viability is 0.517.

And the relative viability ([3]; first compound 0.253 µM)?
The relative viability was 0.481.

What about the relative viability ([3]; first compound 0.8 µM) of the same cell line?
Its relative viability is 0.527.

And the relative viability ([3]; first compound 2.53 µM)?
Its relative viability is 0.569.

And the relative viability ([3]; first compound 8 µM)?
Its relative viability is 0.622.

What about the relative viability ([4]; first compound 0.08 µM) of the same cell line?
Its relative viability is 0.175.

What about the relative viability ([4]; first compound 0.253 µM) of the same cell line?
The relative viability was 0.167.

And the relative viability ([4]; first compound 0.8 µM)?
Its relative viability is 0.188.

What about the relative viability ([4]; first compound 2.53 µM) of the same cell line?
The relative viability was 0.18.

What about the relative viability ([4]; first compound 8 µM) of the same cell line?
Its relative viability is 0.202.

What about the relative viability ([5]; first compound 0.08 µM) of the same cell line?
Its relative viability is 0.867.

What about the relative viability ([5]; first compound 0.253 µM) of the same cell line?
Its relative viability is 0.842.

And the relative viability ([5]; first compound 0.8 µM)?
Its relative viability is 0.7.

What about the relative viability ([5]; first compound 2.53 µM) of the same cell line?
The relative viability was 0.887.

And the relative viability ([5]; first compound 8 µM)?
Its relative viability is 0.861.

What about the relative viability ([6]; first compound 0.08 µM) of the same cell line?
Its relative viability is 0.677.

And the relative viability ([6]; first compound 0.253 µM)?
Its relative viability is 0.652.

What about the relative viability ([6]; first compound 0.8 µM) of the same cell line?
The relative viability was 0.663.

What about the relative viability ([6]; first compound 2.53 µM) of the same cell line?
Its relative viability is 0.664.

What about the relative viability ([6]; first compound 8 µM) of the same cell line?
Its relative viability is 0.537.

And the relative viability ([7]; first compound 0.08 µM)?
Its relative viability is 0.669.

And the relative viability ([7]; first compound 0.253 µM)?
Its relative viability is 0.58.

And the relative viability ([7]; first compound 0.8 µM)?
The relative viability was 0.519.

What about the relative viability ([7]; first compound 2.53 µM) of the same cell line?
Its relative viability is 0.562.

And the relative viability ([7]; first compound 8 µM)?
Its relative viability is 0.552.

What about the relative viability ([8]; first compound 0.08 µM) of the same cell line?
The relative viability was 0.364.

What about the relative viability ([8]; first compound 0.253 µM) of the same cell line?
The relative viability was 0.582.

And the relative viability ([8]; first compound 0.8 µM)?
The relative viability was 0.55.

What about the relative viability ([8]; first compound 2.53 µM) of the same cell line?
Its relative viability is 0.622.

And the relative viability ([8]; first compound 8 µM)?
Its relative viability is 0.573.

And the relative viability ([9]; first compound 0.08 µM)?
The relative viability was 0.613.

And the relative viability ([9]; first compound 0.253 µM)?
Its relative viability is 0.668.

And the relative viability ([9]; first compound 0.8 µM)?
The relative viability was 0.646.

And the relative viability ([9]; first compound 2.53 µM)?
Its relative viability is 0.492.

What about the relative viability ([9]; first compound 8 µM) of the same cell line?
Its relative viability is 0.602.

And the relative viability ([10]; first compound 0.08 µM)?
The relative viability was 0.664.

What about the relative viability ([10]; first compound 0.253 µM) of the same cell line?
The relative viability was 0.581.

What about the relative viability ([10]; first compound 0.8 µM) of the same cell line?
The relative viability was 0.55.

And the relative viability ([10]; first compound 2.53 µM)?
Its relative viability is 0.649.

What about the relative viability ([10]; first compound 8 µM) of the same cell line?
Its relative viability is 0.685.

And the relative viability ([11]; first compound 0.08 µM)?
The relative viability was 0.439.

And the relative viability ([11]; first compound 0.253 µM)?
Its relative viability is 0.495.

What about the relative viability ([11]; first compound 0.8 µM) of the same cell line?
The relative viability was 0.497.

And the relative viability ([11]; first compound 2.53 µM)?
Its relative viability is 0.535.

And the relative viability ([11]; first compound 8 µM)?
Its relative viability is 0.445.

And the relative viability ([12]; first compound 0.08 µM)?
Its relative viability is 0.385.

And the relative viability ([12]; first compound 0.253 µM)?
The relative viability was 0.48.

What about the relative viability ([12]; first compound 0.8 µM) of the same cell line?
Its relative viability is 0.43.

And the relative viability ([12]; first compound 2.53 µM)?
The relative viability was 0.409.

What about the relative viability ([12]; first compound 8 µM) of the same cell line?
The relative viability was 0.472.

And the relative viability ([13]; first compound 0.08 µM)?
The relative viability was 0.56.

And the relative viability ([13]; first compound 0.253 µM)?
Its relative viability is 0.495.

What about the relative viability ([13]; first compound 0.8 µM) of the same cell line?
Its relative viability is 0.452.

What about the relative viability ([13]; first compound 2.53 µM) of the same cell line?
Its relative viability is 0.606.

What about the relative viability ([13]; first compound 8 µM) of the same cell line?
Its relative viability is 0.606.

And the relative viability ([14]; first compound 0.08 µM)?
The relative viability was 0.813.

And the relative viability ([14]; first compound 0.253 µM)?
Its relative viability is 0.962.

What about the relative viability ([14]; first compound 0.8 µM) of the same cell line?
The relative viability was 1.02.

What about the relative viability ([14]; first compound 2.53 µM) of the same cell line?
The relative viability was 0.8.

What about the relative viability ([14]; first compound 8 µM) of the same cell line?
The relative viability was 0.967.
